{"source": "patent US12503425B2", "about": "“Methods of treating or controlling cytotoxic cerebral edema” (Aeromics, Inc., priority 2012, dated 2025)", "key": {"[1]": {"tested_on": "cerebral edema", "assay": "Mouse water toxicity model, brain water content", "assay_type": "in vivo", "conditions": "at 30 minutes", "protocol": "Mouse Water Toxicity Model-Brain Water Content: Compounds are also tested for the ability to reduce CE in mice exposed to the water shock by examining brain water content. Mice are treated with a water bolus as described above, then sacrificed at 30 minutes. Brain water content is assessed by fresh/dry weight ratio, i.e. the brains are weighed immediately then desiccated in an oven at 100° C. for 24 h and dry weights measured (brain water percentage=[…])."}, "[2]": {"tested_on": "cerebral edema", "assay": "Mouse water toxicity model, brain volume by MRI", "conditions": "0.76 mg/kg, versus no drug", "method": "The first time point at 5.67 min coincides with the scan slice at the middle of the brain during the first post-injection scan. Other time points are placed in a similar manner. The data is fitted to a single exponential equation: V/V0=Vi+dVmax(1−e^(−kt)); • where V/V0=relative brain volume, Vi=initial relative brain volume, dVmax=maximum change in relative brain volume, k=first order rate constant (min^−1), and t=time in minutes.\nMouse Water Toxicity Model-Brain Volume by Magnetic Resonance Imaging (MRI): MRI is used to measure changes in brain volume in response to water shock, using the water toxicity model. As described for the survival and brain water content studies above, mice are injected, IP, with a water bolus alone or water bolus and test compound at 0.76 mg/kg, and changes in brain volume as detected by MRI are monitored. […] This imaging method is found to provide sufficient contrast and resolution to sensitively detect changes in total brain volume in the mouse water toxicity model for cerebral edema. […] The cross sectional area of the brain in each imaging slice is measured by manual region-of-interest selection using ImageJ. Brain volumes are then calculated for each scan by summing the individual cross sectional brain areas and multiplying by the slice thickness (0.7 mm)."}, "[3]": {"tested_on": "middle cerebral artery occlusion (MCAo)", "assay": "Mouse MCAo stroke model, neurological outcome (5 point scale)", "assay_type": "in vivo", "conditions": "5 mg/kg i.p. every three hours", "from_the_text": "An improvement in neurological outcome is observed for animals given Compound 5. Control animals have an average neurological score of 2.77±0.66, while animals given Compound 5 have an average score of 0.88±0.31 (FIG. 13, inset, P=0.025, n=9 per treatment)."}, "[4]": {"assay": "Bioconversion of Compound 5 to Compound 1 in mouse plasma in vitro", "assay_type": "in vitro ADME", "conditions": "20° C."}, "[5]": {"tested_on": "AQP", "assay": "AQP inhibition cell-based assay (Table 1)"}}}
{"smiles": "O=C(Nc1cc(C(F)(F)F)cc(C(F)(F)F)c1)c1cc(Cl)ccc1O", "note": "[Compound 1]", "values": [{"measurement": "reduction in CE (brain water content)", "setting": "[1]; 0.76 mg/kg", "result": 11.2, "unit": "%"}, {"measurement": "reduction in CE (brain water content)", "setting": "[1]; 7.6 mg/kg", "result": 15.9, "unit": "%"}, {"measurement": "reduction of the rate of CE development", "setting": "[2]", "result": 2.5, "unit": "fold"}, {"measurement": "detection in plasma samples from mice injected IP with Compound 5", "result": "undetectable"}]}
{"smiles": "O=C(Nc1cc(C(F)(F)F)cc(C(F)(F)F)c1)c1cc(Cl)ccc1OP(=O)(O)O", "note": "[Compound 5]", "values": [{"measurement": "progression of neurological state (in words)", "setting": "[3]", "result": "did not progress into a state of severe paralysis or death"}, {"measurement": "time sufficient to render Compound 5 undetectable", "setting": "[4]", "result": "Less than 5 minutes"}]}
{"smiles": "O=C(Nc1ccccc1)c1ccccc1", "note": "[Phenylbenzamide]", "values": [{"measurement": "AQP inhibition Cell-Based Assay (%)", "setting": "[5]", "result": 4.5, "unit": "%"}]}
